Assay results published in publication PMC4030749 (Molecular cancer therapeutics, 2012).
Values joined by “and” are separate entries in the source; they are usually repeats but may differ in a detail not shown here. Equal values may be shown once. One block for each compound: values may come before it.

Experiments:
Sm3e/C825 bsAb [1] = assay: Binding affinity of Sm3e/C825 bsAb; conditions: unlabeled (no metal) DOTA
[2] = test system: LS174T and C6 tumor-bearing mice; assay: Pretargeted organ/tissue biodistribution in tumor-bearing mice; format: in vivo
Sm3e/C825 bsAb [3] = conditions: read-out: binding affinity (KD) to bsAb; cited from earlier work
[4] = pretargeted protocol, 24 h p.i., n=3
[5] = pretargeted protocol, 4 h p.i., n=3
[6] = pretargeted protocol, 48 h p.i., n=3

Structure (SMILES): O=C(O)CN1CCN(CC(=O)O)CCN(CC(=O)O)CCN(CC(=O)O)CC1 [DOTA, 1,4,7,10-Tetraazacyclododecane-1,4,7,10-tetraacetic acid]
- binding to pretargeted anti-DOTA binding sites (Sm3e/C825 bsAb [1]): no observable binding

- Biodistribution, LS174T Tumor (antigen-positive) [2, 4]: 0.5 ± 0.1 %ID/g
- Tumor/organ ratio, LS174T tumor-to-Kidneys (both) [2, 4]: 1.2 ± 0.4
Structure (SMILES): O=C([O-])CN1CCN(CC(=O)[O-])CCN(CC(=O)[O-])CCN(CC(=O)[O-])CC1.[111In+3] [^111In-DOTA]
- Kd (Sm3e/C825 bsAb [3]): 20 nM

- antigen-positive tumor uptake, pretargeted versus ^177Lu-DOTA alone ([2]; 4 h post-injection): approximately 90 fold
- Biodistribution, Adipose [2, 5]: 2.78 ± 1.08 %ID/g
- Biodistribution, Blood [2, 5]: 0.42 ± 0.02 %ID/g
- Biodistribution, Bone (femur) [2, 5]: 1.49 ± 0.38 %ID/g
- Biodistribution, C6 Tumor (antigen-negative) [2, 5]: 9.82 ± 0.35 (0.26 ± 0.08 g) %ID/g
- Biodistribution, Heart [2, 5]: 0.25 ± 0.16 %ID/g
- Biodistribution, Kidneys (both) [2, 5]: 0.92 ± 0.05 %ID/g
- Biodistribution, LS174T Tumor (antigen-positive) [2, 5]: 7.44 ± 0.41 (0.09 ± 0.03 g) %ID/g
- Biodistribution, Lg Intestine [2, 5]: 0.13 ± 0.09 %ID/g
- Biodistribution, Liver [2, 5]: 0.59 ± 0.21 %ID/g
- Biodistribution, Lung [2, 5]: 1.25 ± 0.43 %ID/g
- Biodistribution, Muscle [2, 5]: 1.56 ± 0.56 %ID/g
- Biodistribution, Skin [2, 5]: 4.68 ± 1.06 %ID/g
- Biodistribution, Sm Intestine [2, 5]: 0.28 ± 0.02 %ID/g
- Biodistribution, Spleen [2, 5]: 0.39 ± 0.09 %ID/g
- Biodistribution, Stomach (with contents) [2, 5]: 0.21 ± 0.12 %ID/g
- Tumor/organ ratio, Adipose [2, 5]: 3.2 ± 1.5
- Tumor/organ ratio, Bone (femur) [2, 5]: 5.3 ± 1.6
- Tumor/organ ratio, C6 Tumor [2, 5]: 0.7 ± 0.1
- Tumor/organ ratio, Heart [2, 5]: 49 ± 36
- Tumor/organ ratio, LS174T Tumor [2, 5]: 1
- Tumor/organ ratio, LS174T tumor-to-Blood [2, 5]: 18 ± 2
- Tumor/organ ratio, Lg Intestine [2, 5]: 80 ± 36
- Tumor/organ ratio, Liver [2, 5]: 13.9 ± 3.7
- Tumor/organ ratio, Lung [2, 5]: 7.2 ± 3.7
- Tumor/organ ratio, Muscle [2, 5]: 5.3 ± 1.6
- Tumor/organ ratio, Skin [2, 5]: 1.7 ± 0.4
- Tumor/organ ratio, Sm Intestine [2, 5]: 27 ± 4
- Tumor/organ ratio, Spleen [2, 5]: 20 ± 5
- Tumor/organ ratio, Stomach (with contents) [2, 5]: 48 ± 22
- Biodistribution, Adipose [2, 4]: 0.67 ± 0.12 %ID/g
- Biodistribution, Blood [2, 4]: 0.04 ± 0.01 %ID/g
- Biodistribution, Bone (femur) [2, 4]: 0.43 ± 0.12 %ID/g
- Biodistribution, C6 Tumor (antigen-negative) [2, 4]: 4.23 ± 0.54 (0.26 ± 0.07 g) %ID/g
- Biodistribution, Heart [2, 4]: 0.05 ± 0.01 %ID/g
- Biodistribution, Kidneys (both) [2, 4]: 0.88 ± 0.16 %ID/g
- Biodistribution, Lg Intestine [2, 4]: 0.52 ± 0.56 %ID/g
- Biodistribution, Liver [2, 4]: 0.51 ± 0.23 %ID/g
- Biodistribution, Lung [2, 4]: 0.37 ± 0.07 %ID/g
- Biodistribution, Muscle [2, 4]: 0.41 ± 0.24 %ID/g
- Biodistribution, Skin [2, 4]: 1.05 ± 0.25 %ID/g
- Biodistribution, Sm Intestine [2, 4]: 0.08 ± 0.04 %ID/g
- Biodistribution, Spleen [2, 4]: 0.29 ± 0.09 %ID/g
- Biodistribution, Stomach (with contents) [2, 4]: 0.09 ± 0.07 %ID/g
- Tumor/organ ratio, Adipose [2, 4]: 23 ± 6
- Tumor/organ ratio, Bone (femur) [2, 4]: 38 ± 16
- Tumor/organ ratio, C6 Tumor [2, 4]: 3.4 ± 0.3
- Tumor/organ ratio, Heart [2, 4]: 323 ± 108
- Tumor/organ ratio, LS174T Tumor [2, 4]: 1
- Tumor/organ ratio, LS174T tumor-to-Blood [2, 4]: 380 ± 90
- Tumor/organ ratio, Lg Intestine [2, 4]: 83 ± 53
- Tumor/organ ratio, Liver [2, 4]: 33 ± 11
- Tumor/organ ratio, Lung [2, 4]: 39 ± 3
- Tumor/organ ratio, Muscle [2, 4]: 57 ± 41
- Tumor/organ ratio, Skin [2, 4]: 14 ± 2
- Tumor/organ ratio, Sm Intestine [2, 4]: 217 ± 76
- Tumor/organ ratio, Spleen [2, 4]: 52 ± 12
- Tumor/organ ratio, Stomach (with contents) [2, 4]: 252 ± 119
- Biodistribution, Adipose [2, 6]: 0.60 ± 0.29 %ID/g
- Biodistribution, Bone (femur) [2, 6]: 0.24 ± 0.10 %ID/g
- Biodistribution, C6 Tumor (antigen-negative) [2, 6]: 2.89 ± 2.28 (0.28 ± 0.13 g) %ID/g
- Biodistribution, Heart [2, 6]: 0.07 ± 0.03 %ID/g
- Biodistribution, Kidneys (both) [2, 6]: 0.62 ± 0.19 %ID/g
- Biodistribution, LS174T Tumor (antigen-positive) [2, 6]: 13.44 ± 3.25 (0.49 ± 0.09 g) %ID/g
- Biodistribution, Lg Intestine [2, 6]: 0.11 ± 0.04 %ID/g
- Biodistribution, Liver [2, 6]: 0.56 ± 0.35 %ID/g
- Biodistribution, Lung [2, 6]: 0.21 ± 0.04 %ID/g
- Biodistribution, Muscle [2, 6]: 0.15 ± 0.07 %ID/g
- Biodistribution, Skin [2, 6]: 0.71 ± 0.20 %ID/g
- Biodistribution, Sm Intestine [2, 6]: 0.14 ± 0.11 %ID/g
- Biodistribution, Spleen [2, 6]: 0.64 ± 0.60 %ID/g
- Biodistribution, Stomach (with contents) [2, 6]: 0.22 ± 0.24 %ID/g
- Tumor/organ ratio, Adipose [2, 6]: 28 ± 13
- Tumor/organ ratio, Bone (femur) [2, 6]: 60 ± 19
- Tumor/organ ratio, C6 Tumor [2, 6]: 10 ± 9
- Tumor/organ ratio, Heart [2, 6]: 244 ± 85
- Tumor/organ ratio, LS174T Tumor [2, 6]: 1
- Tumor/organ ratio, Lg Intestine [2, 6]: 128 ± 16
- Tumor/organ ratio, Liver [2, 6]: 32 ± 13
- Tumor/organ ratio, Lung [2, 6]: 63 ± 6
- Tumor/organ ratio, Muscle [2, 6]: 105 ± 40
- Tumor/organ ratio, Skin [2, 6]: 20 ± 8
- Tumor/organ ratio, Sm Intestine [2, 6]: 183 ± 129
- Tumor/organ ratio, Spleen [2, 6]: 40 ± 21
- Tumor/organ ratio, Stomach (with contents) [2, 6]: 276 ± 236
Structure (SMILES): O=C([O-])CN1CCN(CC(=O)[O-])CCN(CC(=O)[O-])CCN(CC(=O)[O-])CC1.[177Lu+3].[H+] [^177Lu-DOTA]
- Biodistribution, LS174T Tumor (antigen-positive) [2, 4]: 14.3 ± 1.8 %ID/g and 14.34 ± 1.83 (0.21 ± 0.10 g) %ID/g
- Kd (Sm3e/C825 bsAb [3]): 0.4 nM
